According to PMC7432094, “Flexible NAD^+ Binding in Deoxyhypusine Synthase Reflects the Dynamic Hypusine Modification of Translation Factor IF5A” (International Journal of Molecular Sciences, 2020):

Target: T1, PhoDHS (deoxyhypusine synthase from Pyrococcus horikoshii OT3) (Pyrococcus horikoshii, UniProt O50105)
T1 construct: gene dys; full length 1-342, 39 kDa; N-terminal His6 tag with TEV site, tag cleaved; expressed in E. coli B834 (DE3) pRARE2; homotetramer about 130 kDa
Assay: X-ray crystal structure ([…] Å); UV absorbance of NAD+ bound in solution
Type: binding
Settings: NAD+ co-purified from E. coli, none added for the crystal; crystals at pH 4.8, 20 °C; UV at pH 8.0; site at the molA/molD interface

T1 sequence (O50105 whole entry): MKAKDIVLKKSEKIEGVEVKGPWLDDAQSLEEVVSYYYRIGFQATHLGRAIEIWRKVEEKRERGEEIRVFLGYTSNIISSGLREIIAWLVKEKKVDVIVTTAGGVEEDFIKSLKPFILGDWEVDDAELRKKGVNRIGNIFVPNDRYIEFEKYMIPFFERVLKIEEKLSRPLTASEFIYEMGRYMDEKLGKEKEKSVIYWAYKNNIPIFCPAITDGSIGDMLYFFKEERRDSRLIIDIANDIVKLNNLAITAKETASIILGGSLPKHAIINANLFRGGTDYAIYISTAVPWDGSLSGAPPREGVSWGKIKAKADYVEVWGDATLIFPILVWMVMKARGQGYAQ

Question: `NC(=O)c1ccc[n+]([C@@H]2O[C@H](COP(=O)(O)OP(=O)(O)OC[C@H]3O[C@@H](n4cnc5c(N)ncnc54)[C@H](O)[C@@H]3O)[C@@H](O)[C@H]2O)c1` [NAD^+] was tested. Which “X-ray crystal structure (2.2 Å); UV absorbance of NAD+ bound in solution” value did it give?
Answer: Its value is “Two bulky electron density blocks shaped as NAD^+ were distinguished at the interface between molA”.
